Article PMC12111156, “Nitazoxanide Analogs: Synthesis, In Vitro Giardicidal Activity, and Effects on Giardia lamblia Metabolic Gene Expression” (International Journal of Molecular Sciences, 2025)
Read-outs that look alike come from different tables or passages of the source.

How the values were obtained:
[1] = system: G6PD::6PGL enzyme of G. lamblia; conditions: cited from earlier work
HT-29 cells [2] = assay: Cytotoxicity, XTT viability assay, HT-29; conditions: for Selectivity index (CC50/IC50) HT-29: CC50 HT-29 / IC50 trophozoite ATCC strain 30957
Description: (§1) The cytotoxicity assay was performed to evaluate the effect of the selected compounds on human cells. Colon cells were used because they are cell lines like those present in the microenvironment where G. lamblia colonizes, which is the small intestine of the host. The assay was performed using the human cell lines Caco-2 (ATCC HTB-37) and HT-29 (ATCC […]). Cell viability was determined using the Cell Proliferation Kit II (XTT, St. Louis, MO, EE. UU.). A cell suspension of 2 × 10^3 cells/mL was prepared in Dulbecco’s modified Eagle’s medium (DMEM) supplemented with 10% inactivated fetal bovine serum and an antibiotic (1% penicillin/streptomycin, 5000 U/mL, in a volume of 100 µL). The suspension was added to a 96-well plate. The plates were incubated for 24 h at 37 °C in a 5% CO2 atmosphere. […] The cells were incubated for 48 h at 37 °C in a 5% CO2 atmosphere. Cell viability was determined using the following steps. The medium in each well was replaced with 100 µL of fresh medium, and 50 µL of XTT labeling mix was added per well. The reaction was incubated for four hours at 37 °C and 5% CO2. After incubation, the absorbance of the samples on the plate was measured at 450 nm. Each compound was assayed in triplicate in three independent experiments. CC50 values (μM) were determined using the nonlinear regression function of GraphPad Prism version 8 for Windows.

[3] = Cytotoxicity, XTT viability assay, HT-29; conditions: human, CC50 HT-29, 48 h, XTT
Description: as §1

[4] = Cytotoxicity, XTT viability assay, Caco-2; conditions: human
Description: as §1

[5] = system: Giardia lamblia trophozoites (strain ATCC 30957) gene expression; assay: Gene expression in trophozoites by RT-qPCR; type: cell-based; conditions: IC50 of each compound, 48 h
Description: To determine the alterations in the parasite’s metabolism and cellular processes induced by the compounds, the expression levels of various genes encoding metabolic, structural, and oxidative stress response proteins were evaluated. G. lamblia strain ATCC 30957 was grown by following previously established culture parameters.
The culture tube was incubated on ice for 15 min and then centrifuged at 2000 rpm for 6 min to concentrate the cell pellet. Cell counting was performed using the trypan blue method. A 500 µL volume of Trizol ® was added, and it was gently homogenized; then, 60 µL of chloroform was added, and it was homogenized for 10 s with a vortex and incubated on ice for 3 min. Afterward, it was centrifuged at 12,000 rpm for 10 min, the aqueous phase was transferred to a new tube, 200 µL of isopropanol was added, and it was incubated for 3 h on ice. The sample was then centrifuged for 10 min at 12,000 rpm, and the supernatant was discarded. A 600 µL volume of ethanol (70%) was added, homogenized, and centrifuged. In the end, the supernatant was removed, and the sample was centrifuged again to dry the excess alcohol. The pellet was dried. Finally, it was resuspended in 25 µL of sterile MilliQ water. The concentration and purity of the extracted RNA were determined using the NanoDrop® Spectrophotometer ND-1000 (NanoDrop Technologies, Wilmington, DE, USA). […] RNA purity and integrity were confirmed using 0.8% (w/v) agarose gels under denaturing conditions.
The synthesis of cDNA was carried out with […] of purified RNA, and 1 U of […] was added (Thermo Thermo Fisher Scientific, Waltham, MA, USA). First-strand cDNA synthesis was carried out using 1 μg of DNase-treated RNA, combined with a 10 mM dNTP mix, oligo(dT)18 primer, and RevertAid reverse transcriptase (Thermo Scientific) in a final reaction volume of 20 μL. The reaction mixture was incubated at 42 °C for 60 min, followed by heat inactivation at 70 °C for 10 min. The synthesized cDNA was stored at −20 °C until further use. The level of purity and concentration of the cDNA were determined using the NanoDrop® Spectrophotometer ND-1000 (NanoDrop Technologies, Wilmington, DE, USA).
Specific oligonucleotides were designed to determine the expression levels of the gene’s phosphofructokinase, pyruvate kinase, glucose-6-phosphate dehydrogenase::6-phosphogluconolactonase, 6-phosphogluconate dehydrogenase, and transketolase. The design was based on gene sequences available in the National Center for Biotechnology Information (NCBI) database, adhering to the following criteria: an oligonucleotide length of 18–20 bp, a melting temperature (Tm) of 61 °C, a GC content of approximately 40%, and an amplicon size between 80 and 200 bp (Table 4). The oligonucleotides were synthesized by the Sequencing and Synthesis Unit of the Institute of Biotechnology, UNAM.
Additionally, previously reported primers that were used for the gene expression analysis of G. lamblia were also obtained (Table 4). These primers target genes encoding surface structural protein, giardin, actin, pyruvate:ferredoxin oxidoreductase, pyruvate phosphate dikinase, NADH oxidase, triose phosphate isomerase, glyceraldehyde-3-phosphate dehydrogenase, and Aldolase.
Amplification was performed using a StepOne™ Real-Time PCR System and the Fast SYBR® Green Master Mix kit (Applied Biosystems, Foster City, CA, USA) under the following conditions: an initial denaturation at 95 °C for 30 s, followed by 40 cycles of 95 °C for 3 s and 60 °C for 30 s. The melt curve analysis was conducted post-amplification by gradually increasing the temperature from 60 °C to 95 °C. […] Normalization was performed using the geometric mean of cycle threshold (Ct) values, and the relative expression levels of the target genes were calculated using the 2^−ΔΔCt method. Each reaction was performed in five replicates for all analyzed genes and strains. Results are presented as mean values ± standard deviation (SD).

[6] = system: G. lamblia strain ATCC 30957; assay: Viability of Giardia lamblia trophozoite culture (trypan blue count); type: cell-based; conditions: for Inhibition of growth of G. lamblia parasite culture: concentration not given
Description: Viability analysis was performed on G. lamblia strain ATCC 30957 grown in TYI-S-33 medium supplemented with 10% fetal bovine serum (FBS) and an antibiotic. Pre-culture was performed in 16 × 150 mm borosilicate tubes with a medium inoculated with 2 × 10^5 trophozoites and incubated at 37 °C for 48 h. For the recovery of the trophozoites, the vial was incubated in ice for 8 min and centrifuged for 6 min at 2000 rpm. The concentrated trophozoites were suspended in 1 mL of phosphate-buffered saline (PBS), and the number of trophozoites was counted by placing a 1:1 volume ratio of cell culture and trypan blue dye (4 g/L); then, a homogeneous drop of the mixture was taken and placed in the Neubauer chamber, and the total cells were counted.
The curves were plotted for concentrations of 0–50 µM of each compound. The assay was performed by placing 1.5 × 10^5 cells in 1.5 mL microcentrifuge tubes with a supplemented medium and different concentrations of each compound (0–50 µM). The negative control was performed under the same conditions without a compound, and the drugs NTZ and MTZ were used as positive controls. The samples were incubated for 48 h at 37 °C. At the end of the incubation, the cell viability count was performed using the trypan blue technique. The viability calculation was performed following the formula nv/(nv + nm), where nv represents the live cells and nm represents the dead cells; the viability value obtained was expressed as a percentage. The IC50 value of each compound was determined using the IC50 Calculator software (https://www.aatbio.com/tools/ic50-calculator).

[7] = system: G. lamblia strain resistant to nitazoxanide; assay: Giardicidal activity in nitazoxanide-resistant strain (trypan blue count); type: cell-based; conditions: Giardia duodenalis, 48 h, read-out: IC50 G. lamblia (NTZ Resistant)
Description: A pre-culture at confluence was used as a starting point, and a concentration–response curve was plotted using an initial compound concentration of 25 μM in a final volume of 1.5 mL of TYI-S-33 medium, followed by serial dilutions of the compound. Each treatment was inoculated with 1.5 × 10^5 trophozoites and incubated for 48 h at 37 °C. At the end of the incubation, the number of trophozoites was determined using the trypan blue assay and by counting in a Neubauer chamber. The viability percentage at each compound concentration was calculated using the negative control as a reference.

Caco-2 and HT-29 cells = assay: Cytotoxicity, XTT viability assay, stated for both cell lines; type: cell-based, human; conditions: 125 µM, 48 h
Description: The suspension was added to a 96-well plate. […] Cell viability was determined using the following steps.

Caco-2 cells = system: Caco-2 cells; set-up: method as in PMID 38893461; conditions: cited from earlier work
HT-29 cells [8] = system: HT-29 cells; set-up: method as in PMID 38893461; conditions: cited from earlier work
[9] = system: Giardia lamblia (giardiasis); set-up: method as in PMID 11432808, PMID 34378955, PMID 32122530, PMID 37511272; conditions: cited from earlier work
[10] = Giardia duodenalis, ATCC30957, 48 h, trophozoites ATCC 30957, 48 h, 37 °C, read-out: IC50 G. lamblia
[11] = trophozoites ATCC 30957, 48 h, 37 °C, read-out: IC50 G. lamblia
[12] = ratio of IC50 values, ATCC strain

Compound	Inhibition of the G6PD::6PGL enzyme (in words) [1]	Selectivity index (CC50/IC50) HT-29 (HT-29 cells [2])	selectivity ratio at 48 h ([4]; Caco-2)	G6PD::6PGL gene expression vs control [5] [fold change]	GIA (giardin) gene expression, increase vs control [5]	NADHox gene expression, increase vs control [5]	PFK gene expression vs control [5]	PPDK gene expression vs control [5] [fold change]	TKT gene expression, decrease vs control [5] [times]	IC50 [6, 10] [µM]	Inhibition of growth of G. lamblia parasite culture [6]	IC50 [6, 11] [µM]	IC50 [7] [µM]	Decrease of cell viability (Caco-2 and HT-29 cells)	CC50 at 48 h [3] [µM]	CC50 at 48 h ([4]; Caco-2) [µM]	PFOR gene expression vs control [5] [fold change]	TKT gene expression, increase vs control [5] [times]	CC50 (Caco-2 cells) [µM]	CC50 (HT-29 cells [8]) [µM]	other results
CCCCOc1ccc(NC(=O)Nc2ncc([N+](=O)[O-])s2)cc1 [CNZ-8]	inhibitors of the G6PD enzyme	56	57	19.4	12.5 times	4.2 times	reduction	8.2	1.4	< 15	more than 98%	11.1	13.7	up to 20%							CC50 at 48 h ([3]; HT-29 cells): 622 µM; CC50 at 48 h ([4]; Caco-2, CC50 Caco-2, 48 h, XTT): 633 µM
O=C(Nc1ncc([N+](=O)[O-])s1)c1cccc([N+](=O)[O-])c1 [FLP-8, 3-Nitro-N-(5-nitro-1,3-thiazol-2-yl)benzamide]	not inhibitors of the enzyme	436	460		did not show changes in expression	1.7 times	2.7 fold change		1.7		more than 98%		1.19	≤ 50%	43.6	46					CC50 (HT-29 cells [2]; read-out: CC50 HT-29, 48 h, XTT): 43.7 µM; VSP gene expression, increase vs control [5]: 2.4 times; Decrease of parasite viability ([6]; 25 µM): 100%; Relative potency compared with MTZ [6, 12]: 34 times; Relative potency compared with NTZ [6, 12]: 43 times
O=C(Nc1ccc([N+](=O)[O-])cc1)Nc1ncc([N+](=O)[O-])s1 [CNZ-7]	inhibitors of the G6PD enzyme	100	121	11.4	2.6 times	1.7 times	reduction	15.8			more than 98%		2.5	up to 20%	529	640	7.4	1.9			ACT (actin) gene expression, increase vs control [5]: 2.1 times
Cc1ncc([N+](=O)[O-])n1CCO [MTZ, metronidazole, reference compound]		161	160							4.3		3.4							545	550	
CC(=O)Oc1ccccc1C(=O)Nc1ncc([N+](=O)[O-])s1 [NTZ, nitazoxanide]		147	134	48.3	did not show changes in expression	lower	reduction						7.29				14	36.1	580	634	Inhibition of GlG6PD::6PGL (in words) [1]: catalytic inhibitor; 6PGDH gene expression vs control [5]: differential overexpression; GAPDH gene expression vs control [5]: 17.2 fold change; IC50 ([6]; Giardia duodenalis, ATCC30957, 48 h, read-out: IC50 G. lamblia, trophozoites ATCC 30957, 48 h, 37 °C): 3.4 µM; IC50 ([6]; read-out: IC50 G. lamblia, trophozoites ATCC 30957, 48 h, 37 °C): 4.3 µM; Efficacy in treatment of giardiasis [9]: 71%
